The text below walks through data of patent US20120022147A1, “2, 6 XYLIDINE DERIVATIVES FOR THE TREATMENT OF PAIN” (KRISANI BIOSCIENCES (P) LTD, priority 2011, published 2012).

Several values for one entry are separate records, joined by “and”; a condition that tells them apart may be missing. Identical values can stand only once. Marks after values point to notes of the source that are not given here.

This assay concerns spinal nerve ligation model for neuropathic pain in rats. The assay is described as follows: Von Frey test for mechanical allodynia in the spinal nerve ligation (Chung) model of neuropathic pain. Format: in vivo, rat. Conditions: for mean Von Frey force required for withdrawal of left operated leg, Baseline: baseline before surgery and treatment. From the text:
Experimental animals were male SD rats with a starting weight of 230-250 grams. Total number of animals were n=90 for surgery and n=60 after selection. The animals were caged in groups of 3 in a temperature and humidity controlled area. They were maintained on a 12 hr light/dark cycle and had ad libitum access to food and water. Rodent models of neuropathic pain are used to investigate the underlying mechanisms of pain associated with damage to peripheral nerves and to evaluate the efficacy of novel. Tactile sensitivity was measured 7-21 days post-surgery using von Frey monofilaments before and following treatment with gabapentin and other compounds (La Buda et al. 2005).
Neuropathic pain inducement was done by following principles of Chung induced model. The SD rats were anesthetized using ketamine/xylazine sodium. The rats were shaved and placed in prone position for surgery. The L5-L6 spinal nerves were surgically litigated. The rats were returned to their cages for recuperation and recovery under comfortable warm conditions using heat lamps.
After seven days of surgery a pre selection was performed. Animals that indicate signs of post operative pain were to be selected to proceed. Pain is detected by observing when one or more of the criteria are met as follows. Licking of the operated paw, accompanied by gentle biting or pulling on the nails with the mouth; placing the leg in the air; bearing weight on the side contra-lateral to the nerve injury; deformities of the hind paw and abnormal posture and walking; weakness of the left hind paw. […] However, the animal must be able to move its leg to ensure that the L4 spinal nerve is intact. If the animal cannot move its leg, it was excluded from the study.
Second level of selection of the rats was done on day 14 after the surgery. Von Frey test was performed on the preselected rats after day 7 on day 14. Using Von Frey methodology, animals with a pain threshold of ≦26 g for the operated leg will be included in the study. After this selection step, the animals were randomly placed into their experimental groups.
Blank, positive control and test compound: Blank was just the medium used for dissolving other compounds. The positive control was Gabapentin and the test compound was the final compound of formula 1 discussed in the instant disclosure. Three types of experimental groups were formed. Different types of chemicals such as Vehicle and Control were used to determine the efficacy of the chemicals as well comparison of the instant disclosed compound of formula 1, with a positive control was performed. The final compound of the instant disclosure was administered at 100 mg/kg and 150 mg/kg body weight as two different groups. The Gabapentin was administered at 150 mg/kg body weight.
On day 14 blank compound and final compound will be administered once daily starting on study day 14 through study day 21. Gabapentin, the positive control, will be administered 2 hours prior to pain testing on study days 14 and 21. The Von Frey test was be performed prior to final compound administration (pre-final compound injection) and after final compound administration at 0.5 hours, 2 hours and 4.5 hours post-final compound injection on study days 14 and 21. Additionally, if the Von Frey response for the operated leg of one of the six treatment groups is significant at 4.5 hours, all the groups will be tested again at 6.5 hours. In all instances, unless decided otherwise in the course of the study, all dosing solutions are applied as once a day intra peritoneal (IP) administration on each of the repeated dosing sessions. After the termination of the study the animals were euthanized.
Pain Response Evaluation: Pain response was evaluated using Von Frey test for mechanical allodynia. The Von Frey test for mechanical allodynia is based on applying short pulses of pressure that are not painful to a naïve animal. […]

The mark [1] stands for this setting: 150 mg/kg IP, study days 14 and 21.
Setting [2] is: Table 9 (day 14), male SD rats, mean.
The mark [3] stands for this setting: Table 10 (day 21), male SD rats.
[4] abbreviates: study day 14, before first dose, male SD rats.
Where [5] appears, read: study day 14, 150 mg/kg IP, male SD rats.
[6] abbreviates: study day 14, 150 mg/kg IP, male SD rats, 150 mg/kg.
Where [7] appears, read: study day 21, before that day's dose, KRB-5b once daily from day 14, gabapentin on days 14 and 21, 150 mg/kg IP.
Where [8] appears, read: study day 21, 150 mg/kg IP, male SD rats.
Setting [9] is: study day 21, 150 mg/kg IP, male SD rats, 150 mg/kg.
The mark [10] stands for this setting: study day 14, 150 mg/kg IP, male SD rats, listed as gabapentin, 150 mg/kg.

Take `CCN(CCOC(=O)CCCCC1CCSS1)CC(=O)Nc1c(C)cccc1C` (stereo not shown) [KRB-5b]: the “analgesic activity compared to gabapentin (in words)” value under setting [1] is on record as “prolonged analgesic activity compared to gabapentin”. The “analgesic effect on mechanical allodynia compared to Vehicle (in words)” value reads like this: under setting [1], “effective as a pain analgesic item”; (150 mg/kg IP, study days 14 and 21, listed as formula 1) “effective in treating the spinal nerve ligation model for neuropathic pain in rats”. In addition, the “mean Von Frey force required for withdrawal of left operated leg, Baseline” value is on record as 60.00 g under setting [2] and 60 g under setting [3]. For the same compound, the “mean Von Frey force required for withdrawal of left operated leg, Pre-treatment” value came out at 11.00 g under setting [4] and 15.40 g under setting [7]. The “mean Von Frey force required for withdrawal of left operated leg, 30 min Post treatment” value reads like this: under setting [5], 19.60 g; under setting [8], 17.50 g. For the same compound, the “mean Von Frey force required for withdrawal of left operated leg, 6.5 hr Post treatment” value runs as follows: under setting [5], 16.40 g; under setting [8], 10.80 g. Besides, the “mean Von Frey force required for withdrawal of left operated leg, 2 hr Post treatment” value was 39.00±7.19 g and 39.00* g under setting [6]; 21.30# g under setting [8]. Also, the “mean Von Frey force required for withdrawal of left operated leg, 4.5 hr Post treatment” value under setting [6] is 44.20±6.55 g and 44.20*# g; the “mean Von Frey force required for withdrawal of left operated leg, 4.5 hr Post treatment” value under setting [9] is 26.20±5.81 g and 26.20*# g.

As for `NCC1(CC(=O)O)CCCCC1` [Gabapentin, reference compound], the “analgesic effect on mechanical allodynia compared to Vehicle (in words)” value under setting [1] is “active only at 2 hours post dosing”. The “mean Von Frey force required for withdrawal of left operated leg, Baseline” value is given as 60.00 g under setting [2] and 60 g under setting [3]. Further, the “mean Von Frey force required for withdrawal of left operated leg, Pre-treatment” value worked out at 9.69 g under setting [4] and 7.92 g under setting [7]. Besides, the “mean Von Frey force required for withdrawal of left operated leg, 30 min Post treatment” value reads like this: under setting [5], 9.85 g; under setting [8], 9.85 g. Further, the “mean Von Frey force required for withdrawal of left operated leg, 6.5 hr Post treatment” value is listed as 10.69 g under setting [5] and 9.62 g under setting [8]. Also, the “mean Von Frey force required for withdrawal of left operated leg, 2 hr Post treatment” value reads like this: under setting [6], 35.69* g; under setting [10], 35.69 ± 5.69 g; under setting [9], 48.69±4.96 g and 48.69* g. Also, the “mean Von Frey force required for withdrawal of left operated leg, 4.5 hr Post treatment” value by setting is: under setting [6], 10.69 g; under setting [10], 10.69 ± 1.42 g; under setting [9], 10.62 g; (study day 21, 150 mg/kg IP, male SD rats, listed as gabapentin, 150 mg/kg) 10.62 ± 0.90 g.
